Experimental data taken from the supplement of paper PMC5412046.
Where a name gives a salt, the structure may show the parent alone.

Tested on: SB.mhdgc-1
Assay: area under the dose-response curve of % viability (trapezoidal, 11 doses) (% viability x log10 concentration); higher = less cytotoxic
Details: SB.mhdgc-1 (hereditary c.1380delA CDH1 gastric cancer)
Procedure, shortened: (§1)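 Viability, normalised to DMSO, is listed either at the highest concentration or as trapezoidal area under the curve. It was measured in patient-derived gastric cancer cells, hereditary or sporadic, exposed for 48 h to 11 threefold-diluted compound concentrations and then assayed with CellTiter-Glo luminescence.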

Compound	area under the dose-response curve
O=C(NC1CCOCC1)c1ccc(-c2cc(-c3c[nH]nc3-c3ccccn3)ccn2)cc1 (top concentration 46.0829 µM)	603
OC1=CC2=C(C(=C1)O)C(=O)\C=C(/O2)C3=CC=CC=C3 [5,7-Dihydroxyflavone] (top concentration 46.0829 µM)	566
CC(=O)[C@H]1CC[C@H]2[C@@H]3C/C=C4/C[C@@H](O)CC[C@]4(C)[C@H]3CC[C@]12C [Pregnenolone] (top concentration 46.0829 µM)	586
C[S+](=O)([O-])CCNCc1ccc(-c2ccc3ncnc(Nc4ccc(OCc5cccc(F)c5)c(Cl)c4)c3c2)o1 [Lapatinib] (top concentration 46.0829 µM)	483
CC(C)(CO)[C@@H](O)C(=O)NCCC(=O)O [Pantothenic acid] (top concentration 46.0829 µM)	490
CN(C)CCN(C)CCc1ccc(Cl)c(Cl)c1 [BD-1047] (top concentration 46.0829 µM)	484
C=CC(=O)Nc1cccc(Oc2nc(Nc3ccc(N4CCN(C)CC4)cc3OC)ncc2Cl)c1 [WZ-4002] (top concentration 46.0829 µM)	214
COc1cc(Cl)cn2c(-c3cccc(NC4CNC4)n3)cnc12 (top concentration 46.0829 µM)	427
COC1CCC(C(=O)c2ccc3nc4c(cc3c2)CCCO4)CC1 (configuration not stated) (top concentration 46.0829 µM)	515
COC1=C(OCCCN2CCOCC2)C=C3N=CC=C(OC4=CC=C(C=C4F)\C5=C\N=C(\NC6=CC=C(F)C=C6)N(C)C5=O)C3=C1 [AMG-51] (top concentration 46.0829 µM)	457
CN1\N=N/C2=C(N=C[N]2C1=O)C(N)=O [Temozolomide] (top concentration 46.0829 µM)	492
Cl.Cl.Clc1ccc(Nc2nnc(Cc3ccncc3)c3ccccc23)cc1 [Vatalanib] (top concentration 46.0829 µM)	417
Cc1cc(NC(=O)Nc2ccc(N(C)C)cc2)c2cc(F)cc(F)c2n1 (top concentration 46.0829 µM)	495
NC(=O)c1nnn(Cc2cc(Cl)c(C(=O)c3ccc(Cl)cc3)c(Cl)c2)c1N [Carboxyamidotriazole] (top concentration 46.0829 µM)	585
C[C@@H]\1CC(=O)N\N=C1C2=CC=C(NN=C(C#N)C#N)C=C2 [Levosimendan] (top concentration 46.0829 µM)	476
O=C(O)c1nn(Cc2ccc(Cl)cc2Cl)c2ccccc12 [Lonidamine] (top concentration 46.0829 µM)	443
CCOC(=O)C/1=C(O)/C(=O)N(CC2=CC=CC=C2)C1 [EBPC] (top concentration 46.0829 µM)	534
COc1ccc(-c2ccc3c(N4CCOCC4)nc(N4C[C@@H](C)O[C@@H](C)C4)nc3n2)cc1CO (top concentration 46.0829 µM)	340

Compound	area under the dose-response curve
COc1cc([C@@H]2c3cc4c(cc3[C@H](O)[C@H]3COC(=O)[C@@H]23)OCO4)cc(OC)c1OC [Picropodophyllin] (top concentration 46.0829 µM)	381
COC1=CC=CC2=C1C(=NC(=N2)C3=CC=CS3)NN4C(=O)\C=C(C)/C4=O (top concentration 46.0829 µM)	404
O=C(O)c1cc(O)c2c(c1)C(=O)c1cccc(O)c1C2=O [Rhein] (top concentration 92.1659 µM)	588
C[C@@H]1C[C@@H]([C@H](O)CC2CC(=O)NC(=O)C2)C(=O)[C@@H](C)C1 [cycloheximide] (top concentration 46.0829 µM)	391
COc1ccc(C(=O)CC(=O)c2ccc(C(C)(C)C)cc2)cc1 [Avobenzone] (top concentration 46.0829 µM)	394
CC1(C)[C@H](C(=O)O)N2C(=O)C[C@H]2[S+]1(=O)[O-] [Sulbactam] (top concentration 46.0829 µM)	535
CC[C@@H](C)[C@H](NC(=O)[C@H](CC1CCCCC1)NC(=O)c1ccno1)C(=O)N1CCC2(CCc3ccccc32)CC1 [GB 83] (top concentration 46.0829 µM)	430
CC(C)CN(C[C@@H](O)[C@H](Cc1ccccc1)NC(=O)O[C@H]1CCOC1)[S+](=O)([O-])c1ccc(N)cc1 [Amprenavir] (top concentration 46.0829 µM)	356
Cc1ccc([C@@H]2O[C@H](CO)[C@@H](O)[C@H](O)[C@H]2O)cc1Cc1ccc(-c2ccc(F)cc2)s1 [Canagliflozin] (top concentration 46.0829 µM)	559
Cc1ccc2c(c1)c1c(n2CCc2ccc(C)nc2)CCN(C)C1 [Latrepirdine hydrochloride] (top concentration 46.0829 µM)	454
C=CC(=O)Nc1cccc(Sc2nc(Nc3ccc(N4CCN(C)CC4)cc3)ncc2Cl)c1 [WZ-8040] (top concentration 46.0829 µM)	473
C[C@H]1CCC/C=C/C2C[C@H](O)C[C@H]2[C@H](O)/C=C/C(=O)O1 (some centres not stated) [Cyanein] (top concentration 46.0829 µM)	39.8
NC(=O)c1ccc2[nH]ccc2c1 [SD-169] (top concentration 46.0829 µM)	479
C[C@]12CC[C@H]3[C@@H](C\C=C/4C[C@@H](O)CC[C@]34C)[C@@H]1CCC2=O [Dehydroepiandrosterone] (top concentration 46.0829 µM)	465
COc1cc2ncn(-c3cc(OCc4ccccc4[S+](C)(=O)[O-])c(C#N)s3)c2cc1OC [IKK-3 Inhibitor IX] (top concentration 46.0829 µM)	448
NC/1=N/C(=O)N(/C=C1)[C@H]2CC[C@@H](CO)O2 [Zalcitabine] (top concentration 46.0829 µM)	428
CC1(C)C(=O)N(CCN2CCC(C(=O)c3ccc(F)cc3)CC2)c2ccccc21 (top concentration 46.0829 µM)	466
CC1(C)Cc2c(sc(NC(=S)NC(=O)c3ccccc3)c2C(=O)O)CO1 (top concentration 46.0829 µM)	480

Tested on: SB.msgc-1
Assay: as above
Details: SB.msgc-1 (sporadic gastric cancer)
Procedure, shortened: as §1

Compound	area under the dose-response curve
O=C(NC1CCOCC1)c1ccc(-c2cc(-c3c[nH]nc3-c3ccccn3)ccn2)cc1 (top concentration 46.0829 µM)	531
OC1=CC2=C(C(=C1)O)C(=O)\C=C(/O2)C3=CC=CC=C3 [5,7-Dihydroxyflavone] (top concentration 46.0829 µM)	472
CC(=O)[C@H]1CC[C@H]2[C@@H]3C/C=C4/C[C@@H](O)CC[C@]4(C)[C@H]3CC[C@]12C [Pregnenolone] (top concentration 46.0829 µM)	523
C[S+](=O)([O-])CCNCc1ccc(-c2ccc3ncnc(Nc4ccc(OCc5cccc(F)c5)c(Cl)c4)c3c2)o1 [Lapatinib] (top concentration 46.0829 µM)	245
CC(C)(CO)[C@@H](O)C(=O)NCCC(=O)O [Pantothenic acid] (top concentration 46.0829 µM)	494
CN(C)CCN(C)CCc1ccc(Cl)c(Cl)c1 [BD-1047] (top concentration 46.0829 µM)	539
C=CC(=O)Nc1cccc(Oc2nc(Nc3ccc(N4CCN(C)CC4)cc3OC)ncc2Cl)c1 [WZ-4002] (top concentration 46.0829 µM)	161
COc1cc(Cl)cn2c(-c3cccc(NC4CNC4)n3)cnc12 (top concentration 46.0829 µM)	536
COC1CCC(C(=O)c2ccc3nc4c(cc3c2)CCCO4)CC1 (configuration not stated) (top concentration 46.0829 µM)	533
COC1=C(OCCCN2CCOCC2)C=C3N=CC=C(OC4=CC=C(C=C4F)\C5=C\N=C(\NC6=CC=C(F)C=C6)N(C)C5=O)C3=C1 [AMG-51] (top concentration 46.0829 µM)	469
CN1\N=N/C2=C(N=C[N]2C1=O)C(N)=O [Temozolomide] (top concentration 46.0829 µM)	496
Cl.Cl.Clc1ccc(Nc2nnc(Cc3ccncc3)c3ccccc23)cc1 [Vatalanib] (top concentration 46.0829 µM)	481
Cc1cc(NC(=O)Nc2ccc(N(C)C)cc2)c2cc(F)cc(F)c2n1 (top concentration 46.0829 µM)	562
NC(=O)c1nnn(Cc2cc(Cl)c(C(=O)c3ccc(Cl)cc3)c(Cl)c2)c1N [Carboxyamidotriazole] (top concentration 46.0829 µM)	492
C[C@@H]\1CC(=O)N\N=C1C2=CC=C(NN=C(C#N)C#N)C=C2 [Levosimendan] (top concentration 46.0829 µM)	294
O=C(O)c1nn(Cc2ccc(Cl)cc2Cl)c2ccccc12 [Lonidamine] (top concentration 46.0829 µM)	461
CCOC(=O)C/1=C(O)/C(=O)N(CC2=CC=CC=C2)C1 [EBPC] (top concentration 46.0829 µM)	581
COc1ccc(-c2ccc3c(N4CCOCC4)nc(N4C[C@@H](C)O[C@@H](C)C4)nc3n2)cc1CO (top concentration 46.0829 µM)	445

Compound	area under the dose-response curve
COc1cc([C@@H]2c3cc4c(cc3[C@H](O)[C@H]3COC(=O)[C@@H]23)OCO4)cc(OC)c1OC [Picropodophyllin] (top concentration 46.0829 µM)	353
COC1=CC=CC2=C1C(=NC(=N2)C3=CC=CS3)NN4C(=O)\C=C(C)/C4=O (top concentration 46.0829 µM)	413
O=C(O)c1cc(O)c2c(c1)C(=O)c1cccc(O)c1C2=O [Rhein] (top concentration 92.1659 µM)	570
C[C@@H]1C[C@@H]([C@H](O)CC2CC(=O)NC(=O)C2)C(=O)[C@@H](C)C1 [cycloheximide] (top concentration 46.0829 µM)	347
COc1ccc(C(=O)CC(=O)c2ccc(C(C)(C)C)cc2)cc1 [Avobenzone] (top concentration 46.0829 µM)	417
CC1(C)[C@H](C(=O)O)N2C(=O)C[C@H]2[S+]1(=O)[O-] [Sulbactam] (top concentration 46.0829 µM)	562
CC[C@@H](C)[C@H](NC(=O)[C@H](CC1CCCCC1)NC(=O)c1ccno1)C(=O)N1CCC2(CCc3ccccc32)CC1 [GB 83] (top concentration 46.0829 µM)	351
CC(C)CN(C[C@@H](O)[C@H](Cc1ccccc1)NC(=O)O[C@H]1CCOC1)[S+](=O)([O-])c1ccc(N)cc1 [Amprenavir] (top concentration 46.0829 µM)	463
Cc1ccc([C@@H]2O[C@H](CO)[C@@H](O)[C@H](O)[C@H]2O)cc1Cc1ccc(-c2ccc(F)cc2)s1 [Canagliflozin] (top concentration 46.0829 µM)	575
Cc1ccc2c(c1)c1c(n2CCc2ccc(C)nc2)CCN(C)C1 [Latrepirdine hydrochloride] (top concentration 46.0829 µM)	487
C=CC(=O)Nc1cccc(Sc2nc(Nc3ccc(N4CCN(C)CC4)cc3)ncc2Cl)c1 [WZ-8040] (top concentration 46.0829 µM)	320
C[C@H]1CCC/C=C/C2C[C@H](O)C[C@H]2[C@H](O)/C=C/C(=O)O1 (some centres not stated) [Cyanein] (top concentration 46.0829 µM)	129
NC(=O)c1ccc2[nH]ccc2c1 [SD-169] (top concentration 46.0829 µM)	556
C[C@]12CC[C@H]3[C@@H](C\C=C/4C[C@@H](O)CC[C@]34C)[C@@H]1CCC2=O [Dehydroepiandrosterone] (top concentration 46.0829 µM)	530
COc1cc2ncn(-c3cc(OCc4ccccc4[S+](C)(=O)[O-])c(C#N)s3)c2cc1OC [IKK-3 Inhibitor IX] (top concentration 46.0829 µM)	510
NC/1=N/C(=O)N(/C=C1)[C@H]2CC[C@@H](CO)O2 [Zalcitabine] (top concentration 46.0829 µM)	391
CC1(C)C(=O)N(CCN2CCC(C(=O)c3ccc(F)cc3)CC2)c2ccccc21 (top concentration 46.0829 µM)	581
CC1(C)Cc2c(sc(NC(=S)NC(=O)c3ccccc3)c2C(=O)O)CO1 (top concentration 46.0829 µM)	502
